Literature values, collected in patent publication US20140100274A1, “METHODS OF ADMINISTERING COMPOSITIONS COMPRISING DOCOSAPENTAENOIC ACID” (Matinas BioPharma, Inc., priority 2012, published 2014).

Conditions: in vivo

Which First-pass metabolism does the source give for CC[C@H](C)C(=O)O[C@H]1C[C@H](O)C=C2C=C[C@H](C)[C@H](CC[C@@H](O)C[C@@H](O)CC(=O)O)[C@H]21 [pravastatin] here?
The First-pass metabolism was “occurs in all statins except pravastatin”.
